PMC11562385 (RSC Chemical Biology, 2024)
Bridge positions count the residues as written; N and C are the ends. Square brackets hold non-standard residues; d marks the D form. Peptide text beside a SMILES is read from it. * marks the point of attachment. Methacryloyl = C=C(C)C(=O)*; Dab = NCC[C@H](N)C(=O)O; Dap = NC[C@H](N)C(=O)O; Acryloyl = C=CC(=O)*

Columns and labels:
PD1:PDL1 interaction = target: T1, PD1:PDL1 interaction (Homo sapiens, UniProt Q15116); assay: PD1/PDL1 immunoblocking ELISA (BPS Bioscience kit cat # 72005); type: binding; settings: for EC50: ELISA, mean of three independent experiments, read-out: EC50 Value
T1 construct: purchased BPS Bioscience 72005
T1 sequence (Q15116 25-167 limits assumed): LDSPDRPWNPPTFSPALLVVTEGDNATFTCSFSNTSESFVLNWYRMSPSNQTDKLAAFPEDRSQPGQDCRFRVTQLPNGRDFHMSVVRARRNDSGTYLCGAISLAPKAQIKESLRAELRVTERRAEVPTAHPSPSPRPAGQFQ
Description: Original loops with Phe/Trp and their Gly-derived analogs. Experimental EC50 values from inhibitory dose–response curves. Error bars indicate the mean ± SD, (n = 3). […]
SDS -Pages, buffers, and stain were purchased from Fisher
8. Immunoblocking ELISA Assay
Peptide inhibitor stock solutions were prepared in the concentration range of approximately 1-5 mM in DMSO. […]
plate was then washed and blocked with blocking buffer for 1 h at room temperature. Inhibitor solutions (ranging from 0.01 to 100 μM) and a blank solution (DMSO/PBS buffer) were added to designated wells. To initiate the […]
inhibitor solutions. After a 2 h incubation at room temperature, the plate was washed and blocked again for 10 min. Streptavidin-HRP (diluted at 1 : 1000) was added and incubated for 1 h at room temperature with gentle shaking. The plate was washed and blocked once more for 10 min. ELISA ECL substrate was added, and the resulting chemoluminescence was immediately measured in a luminometer (FLUOstar OPTIMA, BMG Labtech).
The luminescence value of the blank was subtracted from all readings according to the manufacturer's

[1] = Variable-temperature CD melting curves (CD-melts at 228±2 nm and 202±2 nm), individual and global two-state fits; type: physicochemical
Description: Recently, our laboratory brought forward a novel synthetic technology for the synthesis of acyclic β-hairpins with long loops. […] To compare hairpins’ stability, both regular (R) and bulged (B) scaffolds were crafted around a flexible 10-residue model loop (G4K2G4) and analyzed by CD (circular dichroism) spectroscopy (Fig. 2(A), see ESI, ^† Table S5). The […] structure of these model scaffolds 1avs.2a in solution were recorded in the far-UV CD spectra. […] The CD-exciton intensity was therefore used as a global probe to determine the %-folding of ADAPTins and to obtain melting curves corresponding to the hairpin fraying mechanism upon a gradual increase of temperature (0 to 95 °C).[68] […] In addition, NMR (nuclear magnetic resonance) chemical shifts were measured to determine variations in backbone […] structures (Fig. 2(B)). Secondary chemical shift deviations (CSDs) were calculated against random coil values[69] for both ADAPTin scaffolds 1vs.2 to verify that the hairpins were folded and if any variation of conformational rigidity exist within the loops. […]
Mass Spectrometer coupled to a Vanquish™ Neo UHPLC System (Thermo Scientific™). Peptide solutions for circular dichroism (CD) were prepared within a concentration range of 15-120 µM in a phosphate buffer (15 mM, […]
measured accurately using a JASCO V-670 spectrophotometer relied on the combined molar absorptivity of Trp (ε280 = 5580 M-1 .cm-1 per Trp) and Tyr (ε280 = 1280 M-1 .cm-1 per Tyr) to determine each sample's concentration.
CD spectra were recorded using a JASCO J-810 Spectropolarimeter equipped with a temperature controller module JASCO PFD-425S. Raw CD melting curves were processed in SpectraGryph, and fitting was performed in OriginPro 9.0 (Originlab Corporation, U.S.A.). NMR samples were prepared by reconstituting freeze -dried peptides (~ 1-5 mg) in mixture of water and DMSO -d6 (90:10 v/v) using 2,2-dimethyl-2-silapentane-5-sulfonate (DSS) as internal standard for chemical shifts (0 ppm), and spectra were recorded at 291 K (18 °C) unless otherwise stated. Chemical shifts ( δ) are reported in ppm. Samples for NMR experiments were prepared in a range of 3-10 mM of peptide in solution unless otherwise noted.

[2] = two-state fit of the CD melt θ - θcoil(95) vs T, 0-95 °C, l 0.1 cm, peptide c 3.2e-5 to 5e-5 M

With `CSCC[C@@H]1NC(=O)[C@H](CC(=O)O)NC(=O)[C@H](Cc2ccccc2)NC(=O)[C@H](CCCNC(=N)N)NC(=O)[C@H](Cc2ccc(O)cc2)NC(=O)[C@H](CC(=O)O)NC(=O)[C@H](CCCNC(=N)N)NC(=O)[C@H](CCCNC(=N)N)NC(=O)[C@H](C)NC(=O)[C@@H](NC(=O)[C@H](Cc2c[nH]c3ccccc23)NC(=O)[C@@H](N)CCCNC(=N)N)CSSC[C@@H](C(=O)N[C@@H](Cc2c[nH]c3ccccc23)C(=O)N[C@@H](CCC(=O)O)C(=O)O)NC(=O)[C@H](Cc2c[nH]c3ccccc23)NC(=O)[C@H](Cc2ccc(O)cc2)NC(=O)[C@H](CC(=O)O)NC(=O)[C@H](Cc2ccccc2)NC(=O)CNC1=O` [2l] (H-RWCARRDYRFDMGFDYWCWE-OH; disulfide 3-18) the EC50 (PD1:PDL1 interaction) was 584 nM, the “LE (ligand efficiency)” value (PD1:PDL1 interaction; LE = -RTln(EC50)/HA, HA = non-hydrogen atoms omitting the strap (RWV•••VWE)) was 0.06 and the ΔGF0 ([1]; CD-melt at 228±2 nm, individual two-state Gibbs-Helmholtz fit (Origin 9.0), 0-95 °C, phosphate buffer 15 mM pH 6.5 ± MeOH) was -0.77 ± 0.01 kcal/mol. For the same compound, the Tm ([1]; Table S5, individual fit, 228±2 nm) was 66.0 oC, the “Hairpin %-fold 291K” value ([1]; Table S5, individual fit, 291 K) was 82 ± 1% and the “Hairpin %-fold 310K” value ([1]; Table S5, individual fit, 310 K) was 71 ± 1%. The “-TΔSF0” value ([1]; as E16) was 4.69 ± 0.05 kcal/mol, the ΔCpF0 ([1]; as E16) was -44 ± 2 cal.deg-1.mol-1 and the ΔHF0 ([1]; as E16) was -5.46 ± 0.05 kcal/mol. For the same compound, the ΔHm ([1]; as E16) was -7.29 ± 0.04 kcal/mol, the “DHm (fitted value, results from OriginPro)” value [1, 2] was -7.28521 kcal/mol and the “Tm (fitted value, results from OriginPro)” value [1, 2] was 339.181 K.
`C=C(C)C(=O)NCC[C@H](NC(=O)[C@H](CC(=O)O)NC(=O)[C@H](Cc1ccccc1)NC(=O)[C@H](CCCNC(=N)N)NC(=O)[C@H](Cc1ccc(O)cc1)NC(=O)[C@H](CC(=O)O)NC(=O)[C@H](CCCNC(=N)N)NC(=O)[C@H](CCCNC(=N)N)NC(=O)[C@H](C)NC(=O)[C@@H](NC(=O)[C@H](Cc1c[nH]c2ccccc12)NC(=O)[C@@H](N)CCCNC(=N)N)C(C)C)C(=O)NCC(=O)N[C@@H](Cc1ccccc1)C(=O)N[C@@H](CC(=O)O)C(=O)N[C@@H](Cc1ccc(O)cc1)C(=O)N[C@@H](Cc1c[nH]c2ccccc12)C(=O)N[C@H](C(=O)N[C@@H](Cc1c[nH]c2ccccc12)C(=O)N[C@@H](CCC(=O)O)C(=O)O)C(C)C` [2cd] (H-RWVARRDYRFD[Dab](Methacryloyl)GFDYWVWE-OH) showed an EC50 (PD1:PDL1 interaction) of 9870 nM.
`C=CC(=O)NCC[C@H](NC(=O)[C@H](CC(=O)O)NC(=O)[C@H](Cc1ccccc1)NC(=O)[C@H](CCCNC(=N)N)NC(=O)[C@H](Cc1ccc(O)cc1)NC(=O)[C@H](CC(=O)O)NC(=O)[C@H](CCCNC(=N)N)NC(=O)[C@H](CCCNC(=N)N)NC(=O)[C@H](C)NC(=O)[C@@H](NC(=O)[C@H](Cc1c[nH]c2ccccc12)NC(=O)[C@@H](N)CCCNC(=N)N)C(C)C)C(=O)NCC(=O)N[C@@H](Cc1ccccc1)C(=O)N[C@@H](CC(=O)O)C(=O)N[C@@H](Cc1ccc(O)cc1)C(=O)N[C@@H](Cc1c[nH]c2ccccc12)C(=O)N[C@H](C(=O)N[C@@H](Cc1c[nH]c2ccccc12)C(=O)N[C@@H](CCC(=O)O)C(=O)O)C(C)C` [2ca] (H-RWVARRDYRFD[Dab](Acryloyl)GFDYWVWE-OH) showed an EC50 (PD1:PDL1 interaction) of 5220 nM.
In the case of `C=CC(=O)NC[C@H](NC(=O)[C@H](CC(=O)O)NC(=O)[C@H](Cc1ccccc1)NC(=O)[C@H](CCCNC(=N)N)NC(=O)[C@H](Cc1ccc(O)cc1)NC(=O)[C@H](CC(=O)O)NC(=O)[C@H](CCCNC(=N)N)NC(=O)[C@H](CCCNC(=N)N)NC(=O)[C@H](C)NC(=O)[C@@H](NC(=O)[C@H](Cc1c[nH]c2ccccc12)NC(=O)[C@@H](N)CCCNC(=N)N)C(C)C)C(=O)NCC(=O)N[C@@H](Cc1ccccc1)C(=O)N[C@@H](CC(=O)O)C(=O)N[C@@H](Cc1ccc(O)cc1)C(=O)N[C@@H](Cc1c[nH]c2ccccc12)C(=O)N[C@H](C(=O)N[C@@H](Cc1c[nH]c2ccccc12)C(=O)N[C@@H](CCC(=O)O)C(=O)O)C(C)C` [2cb] (H-RWVARRDYRFD[Dap](Acryloyl)GFDYWVWE-OH), the EC50 (PD1:PDL1 interaction) is reported as 3980 nM.
With `C=CC(=O)NC[C@H](NC(=O)CNC(=O)[C@H](CC(=O)O)NC(=O)[C@@H](NC(=O)[C@H](CC(N)=O)NC(=O)[C@H](CCSC)NC(=O)CNC(=O)[C@H](CCC(=O)O)NC(=O)[C@H](CCCNC(=N)N)NC(=O)[C@H](C)NC(=O)[C@@H](NC(=O)[C@H](Cc1c[nH]c2ccccc12)NC(=O)[C@@H](N)CCCNC(=N)N)C(C)C)[C@@H](C)O)C(=O)N[C@@H](Cc1ccccc1)C(=O)N[C@@H](CC(N)=O)C(=O)N[C@@H](Cc1ccc(O)cc1)C(=O)N[C@@H](Cc1c[nH]c2ccccc12)C(=O)N[C@H](C(=O)N[C@@H](Cc1c[nH]c2ccccc12)C(=O)N[C@@H](CCC(=O)O)C(=O)O)C(C)C` [2pb] (H-RWVAREGMNTDG[Dap](Acryloyl)FNYWVWE-OH) the EC50 (PD1:PDL1 interaction) was 3040 nM.
For `CSCC[C@H](NC(=O)[C@H](CC(=O)O)NC(=O)[C@H](Cc1ccccc1)NC(=O)[C@H](CCCNC(=N)N)NC(=O)[C@H](Cc1ccc(O)cc1)NC(=O)[C@H](CC(=O)O)NC(=O)[C@H](CCCNC(=N)N)NC(=O)[C@H](CCCNC(=N)N)NC(=O)[C@H](CCCCN)NC(=O)[C@@H](NC(=O)[C@H](Cc1c[nH]c2ccccc12)NC(=O)[C@@H](N)CCCNC(=N)N)C(C)C)C(=O)NCC(=O)N[C@@H](Cc1ccccc1)C(=O)N[C@@H](CC(=O)O)C(=O)N[C@@H](Cc1ccc(O)cc1)C(=O)N[C@@H](Cc1c[nH]c2ccccc12)C(=O)N[C@H](C(=O)N[C@@H](Cc1c[nH]c2ccccc12)C(=O)N[C@@H](CCC(=O)O)C(=O)O)C(C)C` [2g] (H-RWVKRRDYRFDMGFDYWVWE-OH), the EC50 (PD1:PDL1 interaction) was 78 nM.
For `CSCC[C@H](NC(=O)[C@H](CC(=O)O)NC(=O)[C@H](Cc1ccccc1)NC(=O)[C@H](CCCNC(=N)N)NC(=O)[C@H](Cc1ccc(O)cc1)NC(=O)[C@H](CC(=O)O)NC(=O)[C@H](CCCNC(=N)N)NC(=O)[C@H](CCCNC(=N)N)NC(=O)[C@H](C)NC(=O)[C@@H](NC(=O)[C@H](Cc1c[nH]c2ccccc12)NC(=O)[C@@H](N)CCCNC(=N)N)C(C)C)C(=O)NCC(=O)N[C@@H](Cc1ccccc1)C(=O)N[C@@H](CC(=O)O)C(=O)N[C@@H](Cc1ccc(O)cc1)C(=O)N[C@@H](Cc1c[nH]c2ccccc12)C(=O)N[C@@H](Cc1cnc[nH]1)C(=O)N[C@@H](Cc1c[nH]c2ccccc12)C(=O)N[C@@H](CCC(=O)O)C(=O)O` [2e] (H-RWVARRDYRFDMGFDYWHWE-OH), the EC50 (PD1:PDL1 interaction) was 586 nM.
`CC[C@H](C)[C@H](NC(=O)[C@H](Cc1ccc(O)cc1)NC(=O)CNC(=O)[C@H](Cc1ccc(O)cc1)NC(=O)[C@H](CC(N)=O)NC(=O)CNC(=O)[C@H](Cc1ccc(O)cc1)NC(=O)[C@H](C)NC(=O)[C@H](CCCNC(=N)N)NC(=O)[C@H](C)NC(=O)[C@@H](NC(=O)[C@H](Cc1c[nH]c2ccccc12)NC(=O)[C@@H](N)CCCNC(=N)N)C(C)C)C(=O)N[C@@H](CC(=O)O)C(=O)N[C@H](C(=O)N[C@@H](Cc1c[nH]c2ccccc12)C(=O)N[C@@H](Cc1cnc[nH]1)C(=O)N[C@@H](Cc1c[nH]c2ccccc12)C(=O)N[C@@H](CCC(=O)O)C(=O)O)C(C)C` [2r] (H-RWVARAYGNYGYIDVWHWE-OH) gave an EC50 (PD1:PDL1 interaction) of 170 nM.
